Assay results published in patent EP4660182A1, “NAV1.7- AND/OR NAV1.8-INHIBITING ARYL PYRIDINE COMPOUNDS, PROCESSES FOR THE PREPARATION THEREOF, COMPOSITIONS, USES, METHODS FOR TREATMENT USING SAME, AND KITS” (Eurofarma Laboratórios S.A., priority 2023, dated 2024).

Legend:
[1] = molecular target: T1, human sodium channels Nav 1.8 (Homo sapiens, UniProt Q9Y5Y9); assay: Automated whole-cell voltage-clamp (ScreenPatch 384P) sodium current block, Nav 1.8; assay type: cell-based; conditions: CHO cells stably expressing human Nav 1.8; inactivation step -40 mV 8 s, test step 10 mV (TP1A); eight concentrations; exposure at least five minutes; room temperature; read-out: Nav1.8 IC50
T1 construct: expressed in transfected cells
T1 sequence (Q9Y5Y9 whole entry): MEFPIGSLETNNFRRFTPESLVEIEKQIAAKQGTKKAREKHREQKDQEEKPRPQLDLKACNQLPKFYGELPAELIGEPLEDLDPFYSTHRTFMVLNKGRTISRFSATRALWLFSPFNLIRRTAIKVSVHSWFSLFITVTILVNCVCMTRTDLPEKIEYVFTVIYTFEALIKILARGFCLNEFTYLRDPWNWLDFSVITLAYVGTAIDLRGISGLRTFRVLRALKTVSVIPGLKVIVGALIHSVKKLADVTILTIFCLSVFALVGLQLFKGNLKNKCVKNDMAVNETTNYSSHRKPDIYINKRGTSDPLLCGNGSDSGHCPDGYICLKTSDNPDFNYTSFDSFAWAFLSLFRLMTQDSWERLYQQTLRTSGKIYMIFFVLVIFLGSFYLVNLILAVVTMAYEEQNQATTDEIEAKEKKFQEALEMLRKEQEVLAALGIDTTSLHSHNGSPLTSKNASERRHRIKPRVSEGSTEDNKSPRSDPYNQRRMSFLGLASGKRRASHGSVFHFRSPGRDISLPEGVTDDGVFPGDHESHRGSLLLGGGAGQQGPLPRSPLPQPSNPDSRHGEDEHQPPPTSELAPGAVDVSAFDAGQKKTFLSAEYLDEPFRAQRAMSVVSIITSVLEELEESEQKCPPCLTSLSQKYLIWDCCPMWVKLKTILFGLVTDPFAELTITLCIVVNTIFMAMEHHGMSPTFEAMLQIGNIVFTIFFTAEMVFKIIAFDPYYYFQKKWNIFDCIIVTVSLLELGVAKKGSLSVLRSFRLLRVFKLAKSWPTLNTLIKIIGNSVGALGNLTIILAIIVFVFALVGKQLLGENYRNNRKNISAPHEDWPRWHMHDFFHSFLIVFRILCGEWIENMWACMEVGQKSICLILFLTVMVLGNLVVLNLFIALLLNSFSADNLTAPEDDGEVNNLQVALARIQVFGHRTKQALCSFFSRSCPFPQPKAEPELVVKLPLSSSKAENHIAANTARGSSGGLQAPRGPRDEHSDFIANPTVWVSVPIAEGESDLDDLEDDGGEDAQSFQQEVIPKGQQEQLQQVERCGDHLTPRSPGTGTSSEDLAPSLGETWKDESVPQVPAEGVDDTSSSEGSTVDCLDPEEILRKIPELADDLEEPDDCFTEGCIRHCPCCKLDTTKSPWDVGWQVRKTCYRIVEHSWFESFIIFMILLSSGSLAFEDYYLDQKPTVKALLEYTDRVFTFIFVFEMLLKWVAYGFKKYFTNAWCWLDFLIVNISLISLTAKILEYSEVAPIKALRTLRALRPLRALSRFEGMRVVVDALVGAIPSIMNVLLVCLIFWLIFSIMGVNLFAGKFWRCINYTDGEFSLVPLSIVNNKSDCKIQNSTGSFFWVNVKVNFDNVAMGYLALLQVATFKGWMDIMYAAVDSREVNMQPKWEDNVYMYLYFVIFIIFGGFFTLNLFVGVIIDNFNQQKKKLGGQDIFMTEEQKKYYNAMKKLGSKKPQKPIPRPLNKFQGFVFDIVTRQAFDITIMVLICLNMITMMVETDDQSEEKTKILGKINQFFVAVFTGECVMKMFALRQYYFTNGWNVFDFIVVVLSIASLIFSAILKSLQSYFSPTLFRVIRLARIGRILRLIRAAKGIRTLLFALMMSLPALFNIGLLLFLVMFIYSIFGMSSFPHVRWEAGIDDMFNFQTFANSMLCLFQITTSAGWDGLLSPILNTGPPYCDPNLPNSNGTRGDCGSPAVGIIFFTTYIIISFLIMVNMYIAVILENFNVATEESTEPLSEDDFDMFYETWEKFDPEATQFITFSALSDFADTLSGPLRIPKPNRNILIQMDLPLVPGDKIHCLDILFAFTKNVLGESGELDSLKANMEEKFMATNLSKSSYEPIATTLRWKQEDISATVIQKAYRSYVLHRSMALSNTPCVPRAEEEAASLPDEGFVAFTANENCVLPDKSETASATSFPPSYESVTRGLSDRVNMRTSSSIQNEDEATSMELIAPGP
Method: (§1) Biological assays were performed on Chinese hamster ovary (CHO) cells that express human sodium channels Nav 1.8 or Nav 1.7 in a stable manner.
(§2) The experimental protocol voltage-clamp using the whole cell configuration was established on the automated ScreenPatch® 384P platform (SP384PE, Nanion Technologies, Livingston, NJ) and the results were recorded with a Nanion 384-well Patch Clamp chip (NPC) (Nanion Technologies, Livingston, NJ).
(§3) Formula I compounds were diluted in eight concentrations in the extracellular solution composed of saline solution, buffered with HEPES (mM): NaCl, 137; KCl, 4; CaCl2, 3,8; MgCl2, 1; HEPES, 10; Glucose, 10; pH 7.4. The […], 50; CsF, 90; MgCl2, 5; EGTA, 5; HEPES, 10; pH 7.2. The duration of exposure of each compound with cells expressing Nav 1.7 or Nav 1.8 was at least five minutes and the assays were performed at room temperature.
(§4) The measurements of the sodium currents of Nav 1.8 and Nav 1.7 were obtained using the voltage protocol described below.
(§5) A holding voltage of -100 mV was established followed by an inactivation voltage step at -40 mV for 8 seconds, followed by a step of -100 mV for 20 ms, followed by a 20 ms step for 10 mV for Nav 1.8 or 0 mV for Nav 1.7 (TP1A) before returning to the holding voltage of -100 mV.
(§6) The protocol was repeated at a frequency of 0.05 Hz and the amplitude of the current was quantified throughout the recording of the TP1A phase. The variation in the amplitude of the peak current was evaluated according to the formula described below, after exposing the cells expressing the channels to each concentration of the different compounds: % Block = (1−(ITP1A,molecule/ITP1A,basal)×100%, [formula] wherein ITP1A,basal and ITP1A,molecule represent the peaks of sodium current input into TP1A before exposure to the compound and in the presence of the compound, respectively.
(§7) Data were obtained by nonlinear regression (nonlinear least squares) with XLfit for Excel (Microsoft, Redmond, WA).
(§8) The compounds were tested in at least one assay to obtain the value of CI50. For compounds that were tested in two or more assays, the results are described as the means of the CI50 values.

[2] = molecular target: T2, human sodium channels Nav 1.7 (Homo sapiens, UniProt Q15858); assay: Automated whole-cell voltage-clamp (ScreenPatch 384P) sodium current block, Nav 1.7; assay type: cell-based; conditions: CHO cells stably expressing human Nav 1.7; inactivation step -40 mV 8 s, test step 0 mV (TP1A); eight concentrations; exposure at least five minutes; room temperature; read-out: Nav1.7 IC50
T2 construct: expressed in transfected cells
T2 sequence (Q15858 whole entry): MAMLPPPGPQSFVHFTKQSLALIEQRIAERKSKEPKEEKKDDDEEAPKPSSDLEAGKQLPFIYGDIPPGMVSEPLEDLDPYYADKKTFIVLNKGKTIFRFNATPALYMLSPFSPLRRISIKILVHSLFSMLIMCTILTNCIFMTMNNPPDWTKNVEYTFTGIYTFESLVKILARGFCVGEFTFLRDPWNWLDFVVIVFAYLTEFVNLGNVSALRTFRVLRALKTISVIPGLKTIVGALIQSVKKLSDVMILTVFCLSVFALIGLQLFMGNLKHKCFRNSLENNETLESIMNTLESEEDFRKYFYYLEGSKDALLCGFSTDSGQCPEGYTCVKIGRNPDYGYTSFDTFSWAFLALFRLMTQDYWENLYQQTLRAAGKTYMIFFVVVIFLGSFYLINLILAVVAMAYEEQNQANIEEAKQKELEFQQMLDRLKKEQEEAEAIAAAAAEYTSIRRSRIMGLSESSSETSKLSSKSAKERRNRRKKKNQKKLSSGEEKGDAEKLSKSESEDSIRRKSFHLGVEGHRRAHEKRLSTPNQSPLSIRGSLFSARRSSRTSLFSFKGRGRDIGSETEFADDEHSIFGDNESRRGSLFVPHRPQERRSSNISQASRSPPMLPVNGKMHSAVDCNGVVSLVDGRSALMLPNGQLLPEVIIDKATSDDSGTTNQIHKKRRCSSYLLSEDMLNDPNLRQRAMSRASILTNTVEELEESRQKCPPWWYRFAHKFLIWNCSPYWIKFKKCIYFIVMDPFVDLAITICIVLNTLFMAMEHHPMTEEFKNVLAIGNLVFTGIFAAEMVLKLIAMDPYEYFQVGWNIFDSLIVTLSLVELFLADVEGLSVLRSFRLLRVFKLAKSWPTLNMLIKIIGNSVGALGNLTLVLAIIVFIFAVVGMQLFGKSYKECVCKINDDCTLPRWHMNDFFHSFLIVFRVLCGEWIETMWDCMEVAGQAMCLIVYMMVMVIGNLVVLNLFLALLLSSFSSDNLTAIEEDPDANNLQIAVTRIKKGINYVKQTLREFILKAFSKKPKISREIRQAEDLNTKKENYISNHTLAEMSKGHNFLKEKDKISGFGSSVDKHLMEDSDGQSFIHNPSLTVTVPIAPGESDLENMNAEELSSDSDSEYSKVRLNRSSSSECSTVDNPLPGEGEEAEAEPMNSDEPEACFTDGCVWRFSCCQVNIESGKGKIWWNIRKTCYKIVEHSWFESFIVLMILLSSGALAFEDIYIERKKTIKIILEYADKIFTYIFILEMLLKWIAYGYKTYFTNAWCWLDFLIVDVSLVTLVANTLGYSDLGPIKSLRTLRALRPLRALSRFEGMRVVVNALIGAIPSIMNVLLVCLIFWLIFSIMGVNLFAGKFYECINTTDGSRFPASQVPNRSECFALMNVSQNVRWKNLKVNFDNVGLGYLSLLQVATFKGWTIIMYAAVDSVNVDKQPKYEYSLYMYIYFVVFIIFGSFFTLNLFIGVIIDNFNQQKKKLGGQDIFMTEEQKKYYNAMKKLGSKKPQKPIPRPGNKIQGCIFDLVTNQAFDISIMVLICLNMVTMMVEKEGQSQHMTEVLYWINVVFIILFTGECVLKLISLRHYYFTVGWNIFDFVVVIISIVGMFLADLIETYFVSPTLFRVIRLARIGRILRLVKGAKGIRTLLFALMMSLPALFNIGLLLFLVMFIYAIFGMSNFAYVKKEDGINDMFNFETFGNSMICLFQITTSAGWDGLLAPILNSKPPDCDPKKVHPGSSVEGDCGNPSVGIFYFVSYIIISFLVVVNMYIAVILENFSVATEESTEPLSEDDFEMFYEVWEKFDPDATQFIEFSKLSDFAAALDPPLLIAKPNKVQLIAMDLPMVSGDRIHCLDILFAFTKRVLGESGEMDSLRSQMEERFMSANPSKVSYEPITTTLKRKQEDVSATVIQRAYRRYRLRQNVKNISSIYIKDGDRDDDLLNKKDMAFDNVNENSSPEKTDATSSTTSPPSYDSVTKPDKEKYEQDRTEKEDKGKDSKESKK
Method: as §1, §2, §3, §4, §5, §6, §7, §8

Compound	IC50 [1] [µM]	IC50 [2] [µM]
CCOc1ccc(-c2cnc(O)c(C(=O)N/N=C/c3cccn3C)n2)cn1 [Compound 70, (E)-6-(6-ethoxypyridine-3-yl)-3-hydroxy-N'-((1-methyl-1H-pyrrole-2-yl)methylene)pyrazine-2-carbohydrazide]	> 1	> 1
CCOc1ccc(-c2cncc(C(=O)N/N=C/c3cc(C(C)O)ccc3F)n2)cn1 (stereo not drawn) [Compound 23, (E)-6-(6-ethoxypyridine-3-yl)-N'-(2-fluoro-5-(1-hydroxyethyl)benzylidene)pyrazine-2-carbohydrazide]	< 0.5	> 1
CCOc1ccc(-c2cncc(C(=O)N/N=C/c3cc(OC)ccc3O)n2)cn1 [Compound 19, (E)-6-(6-ethoxypyridine-3-yl)-N'-(2-hydroxy-5-methoxybenzylidene)pyrazine-2-carbohydrazide]	0.5 to 1	> 1
COc1cnc(F)c(/C=N/NC(=O)c2nccc(-c3ccc(OC(F)F)nc3)n2)c1 [Compound 127, (E)-4-(6-(difluoromethoxy)pyridine-3-yl)-N'-((2-fluoro-5-methoxypyridine-3-yl)methylene)pyrimidine-2-carbohydrazide]	0.5 to 1	> 1
COc1ccc(F)c(/C=N/NC(=O)c2cncc(-c3ccc(OCCN)nc3)n2)c1 [Compound 135, (E)-6-(6-(2-aminoethoxy)pyridine-3-yl)-N'-(2-fluoro-5-methoxybenzylidene) pyrazine-2-carbohydrazide]	> 1	> 1
CCOc1ccc(-c2nc(C(=O)N/N=C/c3cc(OC)ccc3F)cn(C)c2=O)cn1 [Compound 76, (E)-6-(6-ethoxypyridine-3-yl)-N'-(2-fluoro-5-methoxybenzylidene)-4-methyl-5-oxo-4,5-dihydropyrazine-2-carbohydrazide]	> 1	> 1
CCOc1ccc(-c2ccnc(C(=O)N/N=C/c3cc(OC)cnc3F)n2)cn1 [Compound 73, (E)-4-(6-ethoxypyridine-3-yl)-N'-((2-fluoro-5-methoxypyridine-3-yl)methylene) pyrimidine-2-carbohydrazide]	0.5 to 1	> 1
COc1ccc(F)c(/C=N/NC(=O)c2cncc(-c3ccc(OC4CC4)nc3)n2)c1 [Compound 77, (E)-6-(6-cyclopropoxypyridine-3-yl)-N'-(2-fluoro-5-methoxybenzylidene)pyrazine-2-carbohydrazide]	< 0.5	< 0.5
CCOc1ccc(-c2cncc(C(=O)N/N=C/c3cc(O)nc(OC)c3)n2)cn1 [Compound 43, (E)-6-(6-ethoxypyridine-3-yl)-N'-((2-hydroxy-6-methoxypyridine-4-yl)methylene) pyrazine-2-carbohydrazide]	> 1	> 1
CCOc1ccc(-c2cncc(C(=O)N/N=C/c3cc(CN)ccc3F)n2)cn1 [Compound 13, (E)-N'-(5-(aminomethyl)-2-fluorobenzylidene)-6-(6-ethoxypyridine-3-yl)pyrazine-2-carbohydrazide]	> 1	> 1
CCOc1ccc(-c2cncc(C(=O)N/N=C/c3ccnn3CC)n2)cn1 [Compound 52, (E)-6-(6-ethoxypyridine-3-yl)-N'-((1-ethyl-1H-pyrazole-5-yl)methylene)pyrazine-2-carbohydrazide]	< 0.5	> 1
COc1cnc(F)c(/C=N/NC(=O)c2cncc(-c3ccc(O)nc3)n2)c1 [Compound 167, (E)-N'-((2-fluoro-5-methoxypyridine-3-yl)methylene)-6-(6-hydroxypyridine-3-yl) pyrazine-2-carbohydrazide]	> 1	> 1
CC(O)c1ccc(F)c(/C=N/NC(=O)c2cncc(-c3ccc(OC(F)F)nc3)n2)c1 (stereo not drawn) [Compound 110, (E)-6-(6-(difluoromethoxy)pyridine-3-yl)-N'-(2-fluoro-5-(1-hydroxyethyl)benzylidene)pyrazine-2-carbohydrazide]	< 0.5	> 1
COc1ccc(F)c(/C=N/NC(=O)c2cncc(-c3ccc(OCCC4CNC4)nc3)n2)c1 [Compound 141, (E)-6-(6-(2-(azetidin-3-yl)ethoxy)pyridine-3-yl)-N'-(2-fluoro-5-methoxybenzylidene)pyrazine-2-carbohydrazide]	> 1	> 1
COc1cnc(F)c(/C=N/NC(=O)c2cccc(-c3ccc(OC(F)F)nc3)n2)c1 [Compound 125, (E)-6'-(difluoromethoxy)-N'-((2-fluoro-5-methoxypyridine-3-yl)methylene)-[2,3'-bipyridine]-6-carbohydrazide]	< 0.5	< 0.5
CCOc1ccc(-c2cncc(C(=O)N/N=C/c3nc(OC)ccc3F)n2)cn1 [Compound 15, (E)-6-(6-ethoxypyridine-3-yl)-N'-((3-fluoro-6-methoxypyridine-2-yl)methylene)pyrazine-2-carbohydrazide]	< 0.5	> 1
CCOc1ccc(-c2cncc(C(=O)N/N=C/c3cc(OC)cnc3C)n2)cn1 [Compound 27, (E)-6-(6-ethoxypyridine-3-yl)-N'-((5-methoxy-2-methylpyridine-3-yl)methylene)pyrazine-2-carbohydrazide]	< 0.5	> 1
Cc1ccccc1/C=N/NC(=O)c1cncc(-c2ccc(OC(F)(F)F)nc2)n1 [Compound 88, (E)-N'-(2-methylbenzylidene)-6-(6-(trifluoromethoxy)pyridine-3-yl)pyrazine-2-carbohydrazide]	< 0.5	< 0.5
[2H]C([2H])(C)Oc1ccc(-c2cncc(C(=O)N/N=C/c3cc(OC)cnc3F)n2)cn1 [Compound 169, (E)-6-(6-(ethoxy-1,1-d2)pyridine-3-yl)-N'-((2-fluoro-5-methoxypyridine-3-yl)methylene)pyrazine-2-carbohydrazide]	< 0.5	> 1
CC(O)c1cccc(/C=N/NC(=O)c2cncc(-c3ccc(OC(F)F)nc3)n2)c1 (stereo not drawn) [Compound 109, (E)-6-(6-(difluoromethoxy)pyridine-3-yl)-N'-(3-(1-hydroxyethyl)benzylidene) pyrazine-2-carbohydrazide]	0.5 to 1	> 1
CCOc1ccc(-c2cncc(C(=O)N/N=C/c3cc(OC4CNC4)ccc3F)n2)cn1 [Compound 20, (E)-N'-(5-(azetidine-3-yloxy)-2-fluorobenzylidene)-6-(6-ethoxypyridine-3-yl)pyrazine-2-carbohydrazide]	> 1	> 1
COc1ccnc(/C=N/NC(=O)c2cncc(-c3ccc(OC(F)(F)F)nc3)n2)c1 [Compound 85, (E)-N'-((4-methoxypyridine-2-yl)methylene)-6-(6-(trifluoromethoxy)pyridine-3-yl)pyrazine-2-carbohydrazide]	< 0.5	> 1
COc1ccc(F)c(/C=N/NC(=O)c2cncc(-c3ccc(OCC4CNC4)nc3)n2)c1 [Compound 140, (E)-6-(6-(azetidin-3-ylmethoxy)pyridine-3-yl)-N'-(2-fluoro-5-methoxybenzylidene) pyrazine-2-carbohydrazide]	> 1	> 1
COc1ccc(F)c(/C=N/NC(=O)c2cncc(-c3ccc(OCCC4CN(C)C4)nc3)n2)c1 [Compound 147, (E)-N'-(2-fluoro-5-methoxybenzylidene)-6-(6-(2-(1-methylazetidine-3-yl)ethoxy)pyridine-3-yl)pyrazine-2-carbohydrazide]	> 1	> 1
CC[S+]([O-])c1ccc(-c2cncc(C(=O)N/N=C/c3cc(OC)ccc3F)n2)cn1 (stereo not drawn) [Compound 132, (E)-6-(6-(ethylsulfinyl)pyridine-3-yl)-N'-(2-fluoro-5-methoxybenzylidene)pyrazine-2-carbohydrazide]	> 1	> 1
COc1ccc(F)c(/C=N/NC(=O)c2cncc(-c3ccc(OC(F)(F)F)nc3)n2)n1 [Compound 97, (E)-N'-((3-fluoro-6-methoxypyridine-2-yl)methylene)-6-(6-(trifluoromethoxy)pyridine-3-yl)pyrazine-2-carbohydrazide]	> 1	> 1
COc1ccc(F)c(/C=N/NC(=O)c2cncc(-c3ccc(OC(F)F)nc3)n2)c1 [Compound 100, (E)-6-(6-(difluoromethoxy)pyridine-3-yl)-N'-(2-fluoro-5-methoxybenzylidene) pyrazine-2-carbohydrazide]	< 0.5	0.5 to 1
